Laboratory results reported in paper PMC10714399, “Open Source Antibiotics: Simple Diarylimidazoles Are Potent against Methicillin-Resistant Staphylococcus aureus” (ACS Infectious Diseases, 2023).
In brackets after ≈: the same amount, converted by molar mass. Like-named read-outs stand apart in the source and are kept apart here.

Assays:
[1] = Human plasma protein binding (PPB); format: in vitro ADME; conditions: human, plasma
Source text: (§1) To guide our initial SAR exploration work, we obtained liver microsomal intrinsic clearance data for 5 of the 18 compounds assayed by CO-ADD (Supporting Information - CDCO Report and Supporting Information - Biology). We then acquired intrinsic clearance (CLint), plasma protein binding (PPB), and solubility data on further compounds throughout the SAR campaign (Supporting Information - Biology, Tables S3 and S4).
(§2) Table S4. ADME and Pharmacokinetics: compounds only appearing in the Supplementary […]
(§3) MRSA Aqueous HLM CLint Rat Hep CLint
(§4) Cmpd MIC Solubility Human PPB (%) (µL/min/mg (µL/min/10x6 LogD7.4
(§5) (µg/mL) (µM) protein) cells)
(§6) ADME and toxicity for compounds were measured according to procedures outlined in the manuscript submitted in parallel to this one;2 other procedures were used for those compounds analysed by Monash University (in vitro ADME) or UCL (toxicity), both described in the main

[2] = Rat hepatocyte intrinsic clearance; format: in vitro ADME
Source text: as §1, §2, §3, §4, §5, §6

LogD7.4 (Chrom Log D) = format: physicochemical
Source text: as §1, with “S4). […] The more polar compounds (lower LogD) had reduced PPB and were more metabolically stable.” for “S4).”
as §2, §3, §4, §5, §6

[3] = tested on: S. aureus ATCC 25923 (methicillin-susceptible); test: In vitro antibacterial activity, MIC (UCL), MSSA; format: cell-based, Staphylococcus aureus; conditions: Staphylococcus aureus
Procedure, shortened: (§7)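 Each organism was taken from overnight tryptone soya agar, suspended in PBS at A600 0.1, diluted 1:100 in isosensitest broth and added to serially diluted compound (32 to 0.03 μg/mL).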

[4] = tested on: Enterococcus faecalis ATCC 51299 (vanA-positive; vancomycin-resistant); test: In vitro antibacterial activity, MIC (UCL), VRE; format: cell-based
Procedure, shortened: as §7

[5] = tested on: Staphylococcus aureus NCTC 13373 (mecA-positive; methicillin-resistant); test: In vitro antibacterial activity, MIC (UCL School of Pharmacy assay), MRSA; format: cell-based; conditions: Staphylococcus aureus
Procedure, shortened: as §7

[6] = Human liver microsome intrinsic clearance; format: in vitro ADME
Source text: as §1, §2, §3, §4, §5, §6

Aqueous solubility = format: physicochemical; conditions: for solubility: thermodynamic from solid
Source text: as §1, with “S4). […] The more polar compounds (lower LogD) had reduced PPB and were more metabolically stable.” for “S4).”
as §2, §3, §4, §5, §6

VSE = test: In vitro antibacterial activity, MIC, VSE; format: cell-based; conditions: read-out: VSE MIC (UCL)
[7] = tested on: PMM (primary mouse macrophages); test: Toxicity against PMM; format: cell-based; conditions: PMM
Experimental: as §6

[8] = tested on: MRC-5SV2 (human lung fibroblast cell line); test: Toxicity against MRC-5SV2; format: cell-based; conditions: MRC5 cells
Experimental: as §6

[9] = human plasma, NEU, read-out: Human PPB (NEU) (converted)
[10] = rat hepatocytes, NEU, read-out: Rat Hep CLint (NEU)
[11] = chromatographic system (Chrom Log D), pH 7.4, NEU, read-out: LogD 7.4 (NEU)
[12] = human liver microsomes, NEU, read-out: HLM CLint (NEU)
[13] = NEU, read-out: Aqueous Solubility (NEU)
[14] = read-out: Human PPB (converted)
[15] = rat, hepatocytes, Figure 4, read-out: Rat Hep CLint
[16] = human, liver microsomes, read-out: HLM CLint

Compound | fraction unbound [1, 9] | hepatocyte CLint [2, 10] | chromatographic logD (LogD7.4 (Chrom Log D); [11]) | MIC ([3]; read-out: MSSA MIC (UCL)) | MIC ([4]; read-out: VRE MIC (UCL)) | MIC ([5]; UCL, read-out: MRSA MIC (UCL)) | microsomal CLint [6, 12] | solubility (Aqueous solubility; [13]) | further results
COc1ccnc(-c2nc3cc(OC)ccn3c2N(C)c2ccc(F)cc2)c1 [OSA_001000] | < 0.033 | > 300 µL/min/1e6 cells | 3.1 | 8 µg/mL (≈ 21.1 µM) | 8 µg/mL (≈ 21.1 µM) | 2 µg/mL (≈ 5.29 µM) | 51.2 µL/min/mg | 12 µM (≈ 4.54 µg/mL) | MIC (VSE): 8 µg/mL (≈ 21.1 µM)
COc1cccc(-c2nc3ccccn3c2N(CC(C)C)c2ccc(F)cc2)n1 [OSA_001025] |  |  | > 3.7 |  |  |  |  |  | fraction unbound ([1]; human plasma, NEU, read-out: Human PPB (%) (NEU) (converted)): < 0.01; MIC ([3]; UCL assay, read-out: MSSA MIC (ug/mL) (UCL)): > 32 µg/mL; MIC ([5]; UCL assay, read-out: MRSA MIC (ug/mL) (UCL)): > 32 µg/mL; microsomal CLint ([6]; human liver microsomes, NEU, read-out: HLM CLint (uL/min/mg protein) (NEU)): 86.8 µL/min/mg; solubility (Aqueous solubility; NEU, read-out: Aqueous Solubility (uM) (NEU)): 0.7 µM (≈ 0.273 µg/mL)
Cc1ccc(-c2c(-c3ccccn3)nc3cc(Cl)ccn23)cc1 [compound 978] |  |  |  |  |  |  |  |  | fraction unbound [1, 14]: 0.01; hepatocyte CLint [2, 15]: 104 µL/min/1e6 cells; chromatographic logD (LogD7.4 (Chrom Log D); pH 7.4, read-out: LogD7.4): 3.1; MIC ([4]; read-out: VRE MIC): 8 µg/mL (≈ 25 µM); MIC ([5]; 16 h, read-out: MRSA MIC): 4 µg/mL (≈ 12.5 µM); MIC ([5]; read-out: MRSA MIC): 4 µg/mL (≈ 12.5 µM); microsomal CLint [6, 16]: 65.6 µL/min/mg; solubility (Aqueous solubility; read-out: Aqueous Solubility): 5 µM (≈ 1.6 µg/mL)
CN(c1ccc(F)cc1)c1c(-c2ccccn2)nc2ccc(Br)cn12 [OSA_001003] | 0.0018 | > 300 µL/min/1e6 cells | 4.2 | 16 µg/mL (≈ 40.3 µM) |  | 16 µg/mL (≈ 40.3 µM) | 61.6 µL/min/mg | 4 µM (≈ 1.59 µg/mL) | 
CN(c1ccc(F)cc1)c1c(-c2ccccn2)nc2cccc(F)n12 [OSA_001005] | 0.035 | > 300 µL/min/1e6 cells | 1.8 | 32 µg/mL (≈ 95.1 µM) |  | 32 µg/mL (≈ 95.1 µM) | 79.3 µL/min/mg | 64 µM (≈ 21.5 µg/mL) | 
Cc1ccc(-c2c(-c3ccccn3)nc3ccccn23)cc1 [compound 1018] |  |  |  |  |  |  |  |  | fraction unbound [1, 14]: 0.01; hepatocyte CLint [2, 15]: 57.7 µL/min/1e6 cells; chromatographic logD (LogD7.4 (Chrom Log D); pH 7.4, read-out: LogD7.4): 3.3; MIC ([3]; read-out: MSSA MIC): 4 µg/mL (≈ 14 µM); MIC ([5]; 16 h, read-out: MRSA MIC): 4 µg/mL (≈ 14 µM); MIC ([5]; read-out: MRSA MIC): 4 µg/mL (≈ 14 µM); microsomal CLint [6, 16]: 122 µL/min/mg; solubility (Aqueous solubility; read-out: Aqueous Solubility): 43 µM (≈ 12.3 µg/mL)
CSc1ccc2nc(-c3ccccn3)c(N(C)c3ccc(F)cc3)n2c1 [OSA_001004] | 0.0054 | > 300 µL/min/1e6 cells | 4.5 | 8 µg/mL (≈ 22 µM) |  | 8 µg/mL (≈ 22 µM) | > 300 µL/min/mg | 7 µM (≈ 2.55 µg/mL) | 

The next lines start with results.

fraction unbound [1, 9] | hepatocyte CLint [2, 10] | chromatographic logD (LogD7.4 (Chrom Log D); [11]) | MIC ([3]; read-out: MSSA MIC (UCL)) | MIC ([4]; read-out: VRE MIC (UCL)) | MIC ([5]; UCL, read-out: MRSA MIC (UCL)) | microsomal CLint [6, 12] | solubility (Aqueous solubility; [13]) | Compound | further results
0.035 | 12.9 µL/min/1e6 cells | 2.5 |  | > 32 µg/mL | > 32 µg/mL | 124 µL/min/mg | 37 µM (≈ 12.5 µg/mL) | COc1ccn2c(-c3cccc(Cl)n3)c(-c3ccccn3)nc2c1 [OSA_000857] | PMM TC50 [7]: 64 µM; MRC5 TC50 [8]: 24.2 µM
0.034 | 209 µL/min/1e6 cells | 3.3 | > 32 µg/mL |  | > 32 µg/mL | 127 µL/min/mg | 26 µM (≈ 8.74 µg/mL) | CN(c1ccc(F)cc1)c1c(-c2ccccn2)nc2c(F)cccn12 [OSA_001006] | 
0.0055 |  | 3.1 |  | 8 µg/mL (≈ 25 µM) | 4 µg/mL (≈ 12.5 µM) |  |  | Cc1ccc(-c2c(-c3ccccn3)nc3cc(Cl)ccn23)cc1 [OSA_000978] | Rat Hep CLint (NEU) ([2]; rat hepatocytes, NEU): 104 uL/min/10x6 cells; HLM CLint (NEU) ([6]; human liver microsomes, NEU): 65.6 uL/min/mg protein; Aqueous Solubility (NEU) (Aqueous solubility; NEU): 5 µM
